Measurements: patent publication US8410310B2, “Trypsin-like serine protease inhibitors, and their preparation and use” (The Medicines Company (Leipzig) GmbH, priority 2006, dated 2013)

Experiments:
[1] = system: t-PA-induced fibrinolysis in plasma; experiment: Plasma fibrinolysis assay (turbidometric); assay type: biochemical; conditions: human plasma, t-PA 50 U/mL; for IC50: read-out: IC50 on t-PA-induced fibrinolysis in plasma (median [25%; 75% percentile])
Procedure: Venous blood was withdrawn from the antecubital vein from healthy volunteers after written informed consent in accordance with local and federal guidelines with approval of the local review board (Ethikkommission, Klinikum Charité, Sauerbruchweg 5, 10117 Berlin). The blood was mixed with 0.11 mol/L sodium citrate (1:10). For ROTEM® analysis, whole citrated blood was used within 8 h after collection. Platelet-rich plasma (PRP) was prepared from citrated blood by centrifugation at 330×g for 10 min at room temperature, platelet-poor plasma (PPP) was collected following centrifugation at 1220×g for 12 min. The PRP was then adjusted to 3×10^8 platelets per mL using the autologous PPP. PRP was maintained at room temperature for less than 4 h before analysis. The remaining PPP was subjected to a high-speed centrifugation at 40,000×g for 30 min at 4° C. to remove any particulate material and was then stored at −70° C. until use.
The antifibrinolytic activity of Compound No. 3 in comparison to aprotinin and tranexamic acid was investigated in plasma and whole blood assays. In both assays, tissue factor was added to initiate rapid clot formation via the extrinsic pathway which produces a clot that remains stable for several hours under normal conditions. Supplementation of plasma or whole blood with tissue-type plasminogen activator (t-PA) before stimulation results in activation of endogenous plasminogen and thus fibrinolysis while the initial clot formation is not impaired. […] A final concentration of 50 U/mL and 100 U/mL in plasma and whole blood, respectively, was chosen to achieve complete lysis within about 60 min. In the presence of antifibrinolytics, clot lysis is delayed in a concentration-dependent manner.
Inhibition of fibrinolysis in plasma was examined using a turbidometric method in 96-well flat-bottom plates. The time course of clot formation and lysis, reflected by an initial increase and subsequent decrease in turbidity, was recorded by continuously measuring the optical density (OD) at 405 nm. Similar models have been used widely to study the clot lysis process in human plasma (Kim et al., J. Thromb. Haemost. 5: 1250-6, 2007) as well as its inhibition by antifibrinolytic drugs (Sperzel et al., J. Thromb. Haemost. 5: 2113-8, 2007). Frozen and thawed human plasma (PPP) was pre-incubated with test compound or vehicle (Owren's Veronal buffer) for 5 min at 37° C. […] OD at 405 nm was monitored every 45 s for 180 min at 37° C. with a microplate reader (POLARstar OPTIMA, BMG Labtech, Offenburg, Germany). Fibrinolysis was quantified as the relative decrease in OD at 45 min after the maximum OD was reached. […]

whole blood clotting = experiment: Whole blood coagulation assay (ROTEM, INTEM/EXTEM); assay type: cell-based, human; conditions: for whole blood coagulation times (INTEM, EXTEM clotting time): 100 to 1000 nM; for clot strength (ROTEM maximum amplitude): over the concentration range tested (data not shown)
Source text: Since Compound No. 3 inhibits multiple proteases of the coagulation system, we investigated possible anticoagulant properties using established tests in vitro. Whereas tissue factor is the physiologic trigger of coagulation, both extrinsic and contact-mediated stimulation contribute to hemostatic activation under conditions like CPB (Boisclair et al. Blood 82: 3350-7, 1993 and Edmunds et al., Ann. Thorac. Surg. 82: 2315-22, 2006). We therefore studied the impact of Compound No. 3 and aprotinin on coagulation in plasma and whole blood following both intrinsic and extrinsic stimulation. Tranexamic acid has no influence on other proteases than plasminogen and, therefore, is not included in these experiments.
The influence on whole blood clotting was assayed with rotational thrombelastometry (Ganter et al., Anesth. Analg. 106: 1366-75, 2008) using ellagic acid (INTEM reagent) as activator of the intrinsic system or tissue factor (EXTEM reagent) as extrinsic coagulation activator. Following a 5-min pre-incubation with test compounds or saline, citrated human blood was subjected to ROTEM® analysis according to the manufacturer's instructions. ROTEM® clotting time (equal to reaction time, r) and maximum clot strength (equal to maximum amplitude) were obtained as coagulation parameters.

trypsin = conditions: background; cited from earlier work
Thrombin = Thrombin (Homo sapiens, UniProt P00734); experiment: Determination of inhibition constants for thrombin; assay type: biochemical
How it was run: (§1)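 Chromogenic assays measured absorbance at 405 nm: zero-order reactions were stopped with acetic acid after 20 min, and pseudo-first-order rates were recorded kinetically at equilibrium. Ki was obtained by Dixon linear regression or by fitting to the competitive-inhibition rate equation, averaging at least two determinations.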

[2] = Terminal half-life in rats; conditions: rat, in vivo
[3] = Terminal half-life in dogs; conditions: dog, in vivo
plasma kallikrein = plasma kallikrein (Homo sapiens, UniProt P03952); experiment: Determination of inhibition constants for PK; assay type: biochemical; set-up: purchased Enzyme Research Lab. / Enzyme Research Laboratories; conditions: 25° C., substrate S2302, pH 8.0; read-out: PK [Ki]
Chain of plasma kallikrein (P03952 391-638 limits assumed): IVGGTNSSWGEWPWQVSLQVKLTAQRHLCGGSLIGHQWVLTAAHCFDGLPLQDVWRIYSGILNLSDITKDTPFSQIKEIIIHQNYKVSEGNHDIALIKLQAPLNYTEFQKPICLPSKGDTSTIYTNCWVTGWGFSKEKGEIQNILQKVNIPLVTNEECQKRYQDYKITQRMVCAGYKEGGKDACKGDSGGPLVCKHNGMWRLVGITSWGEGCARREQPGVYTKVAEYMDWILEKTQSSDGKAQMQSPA
Chain of plasma kallikrein (P03952 20-390 partner limits assumed): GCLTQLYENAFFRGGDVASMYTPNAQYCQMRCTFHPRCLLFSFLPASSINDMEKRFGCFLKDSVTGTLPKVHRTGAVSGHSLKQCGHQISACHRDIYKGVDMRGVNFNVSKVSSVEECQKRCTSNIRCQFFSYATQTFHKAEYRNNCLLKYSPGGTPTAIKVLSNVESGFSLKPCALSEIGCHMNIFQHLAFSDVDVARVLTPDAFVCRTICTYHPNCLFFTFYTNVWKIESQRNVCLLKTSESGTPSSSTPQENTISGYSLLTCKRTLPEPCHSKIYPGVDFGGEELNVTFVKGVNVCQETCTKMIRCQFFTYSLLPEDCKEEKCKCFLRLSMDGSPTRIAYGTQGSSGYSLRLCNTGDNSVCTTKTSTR
How it was run: as §1

For aprotinin, the “IC50 on t-PA-induced fibrinolysis in plasma expressed in KIU/mL” value ([1]; converted from nM) was 15 KIU/mL, the IC50 [1] was 327 nM and the “whole blood coagulation times (INTEM, EXTEM clotting time)” value (whole blood clotting) was “almost no influence”. For the same compound, the “intrinsic ROTEM clotting times” value (whole blood clotting; higher aprotinin concentrations (data not shown)) was “marked prolongation”, the “clot strength (ROTEM maximum amplitude)” value (whole blood clotting) was “Neither Compound No. 3 nor aprotinin impaired clot strength” and the Ki (trypsin) was 0.1 nM.
In the case of `N=C(N)c1ccc(CNC(=O)[C@H](Cc2cccc(CN)c2)NC(=O)[C@@H](CCCc2ccccc2)NS(=O)(=O)Cc2cccc(C(=O)O)c2)cc1` [compound 3, 3-HOOC-Bzls-d-Ppg-Phe(3-Ame)-4-Amba×2 acetate], the Ki (Thrombin) is reported as > 1000 nM, the IC50 [1] is reported as 315 nM and the “whole blood coagulation times (INTEM, EXTEM clotting time)” value (whole blood clotting) is reported as “significant prolongation”. For the same compound, the “clot strength (ROTEM maximum amplitude)” value (whole blood clotting) was “Neither Compound No. 3 nor aprotinin impaired clot strength”, the half-life [2] was 20 min and the half-life [3] was 20 min. For the same compound, the Ki (plasma kallikrein) was < 10 nM.
